In patent publication US6313171A, “Method for preventing or treating elevated blood lipid level-related diseases by administering cinnamic acid derivatives” (Korea Research Institute of Bioscience & Biotechnology, priority 1998, dated 2001):

molecular target: T1, HMG-CoA reductase (Rattus norvegicus, UniProt P51639); assay: HMG-CoA reductase activity assay, liver microsomes of the fed rats; type: biochemical; details: liver microsomes of rats fed 0.1% in 1% cholesterol diet; Control 0
T1 construct: the supernatant was ultracentrifuged at 100,000×g for 60 minutes to obtain microsomal precipitates; from tissue; host or cells: rat liver microsomes
T1 sequence (P51639 1-887): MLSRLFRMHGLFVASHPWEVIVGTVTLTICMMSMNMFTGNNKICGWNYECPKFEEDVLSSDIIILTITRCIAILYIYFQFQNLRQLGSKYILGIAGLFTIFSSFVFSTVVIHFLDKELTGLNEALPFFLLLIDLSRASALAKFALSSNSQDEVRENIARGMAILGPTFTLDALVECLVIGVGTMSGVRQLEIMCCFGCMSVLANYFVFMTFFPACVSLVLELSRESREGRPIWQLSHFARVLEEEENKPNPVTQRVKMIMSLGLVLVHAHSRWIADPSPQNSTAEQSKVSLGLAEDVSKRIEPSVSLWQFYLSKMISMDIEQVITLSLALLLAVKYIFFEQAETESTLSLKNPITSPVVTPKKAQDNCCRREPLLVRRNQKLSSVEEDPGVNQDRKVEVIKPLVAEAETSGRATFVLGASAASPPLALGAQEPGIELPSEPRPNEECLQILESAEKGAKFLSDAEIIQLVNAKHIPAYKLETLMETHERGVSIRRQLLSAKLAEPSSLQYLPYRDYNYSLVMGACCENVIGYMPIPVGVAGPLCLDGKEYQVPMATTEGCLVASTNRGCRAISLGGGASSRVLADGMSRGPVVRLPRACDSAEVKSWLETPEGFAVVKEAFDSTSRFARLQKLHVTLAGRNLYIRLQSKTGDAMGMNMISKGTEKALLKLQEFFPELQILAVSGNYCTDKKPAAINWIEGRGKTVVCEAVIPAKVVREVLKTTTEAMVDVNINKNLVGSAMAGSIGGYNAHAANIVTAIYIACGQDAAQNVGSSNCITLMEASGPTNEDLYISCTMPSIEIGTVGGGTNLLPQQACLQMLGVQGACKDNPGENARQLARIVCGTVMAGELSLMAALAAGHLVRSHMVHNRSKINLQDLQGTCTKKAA
Procedure: In order to determine the activity of HMG-CoA reductase, Hulcher's method was employed after some modification (see J. Lipid Res., 14, 625-641(1973)). In this method, the concentration of the coenzyme-A (CoA-SH), which is produced when HMG-CoA is reduced to a mevalonate salt by the action of HMG-CoA reductase, is determined by spectroscopy and the activity of HMG-CoA reductase is calculated therefrom.
3 g of liver tissue taken from each group of rats of Example 2 was washed successively with 100 ml of a cold saline (0.15 M NaCl) and 100 ml of a cold buffer solution A (0.1 M triethanolamine, HCl/0.2 M EDTA/2 mM dithiothreitol (DTT)). The cold buffer solution A was added to the liver tissue in an amount of 2 ml per 1 g of the liver tissue and the mixture was homogenized with a homogenizer. The homogenate was centrifuged at 15,000×g for 15 minutes, and then, the supernatant was ultracentrifuged at 100,000×g for 60 minutes to obtain microsomal precipitates. The precipitates thus obtained was washed with a cold buffer solution A and kept in a 1.5 ml tube at -70° C.
The reaction substrates used in HMG-CoA reductase activity assay were as follows: i) buffer solution B: 0.1 M triethanolamine, HCl/0.02 M EDTA (pH 7.4), ii) HMG-CoA solution: 150 μmoles/culture medium, and iii) NADPH solution: 2 μmoles/culture medium.
The suspension (microsome) was mixed with the reaction substrate and the mixture was placed in a centrifugation tube and reacted at 37° C. for 30 minutes. […]
Then, the reactant was mixed with 20 μl of DTNB buffer solution (3 mM DTNB/0.1 M triethanolamine/0.2 M EDTA, pH 7.4) and the absorbance of the mixture was determined at 412 nm to calculate the amount of CoA-SH (activity of HMG-CoA reductase).
The extent of inhibition of HMG-CoA reductase activity by cinnamic acid derivatives was calculated based on the above result.

Inhibition of HMG-CoA reductase activity	SMILES
70%	O=C(O)CCc1ccc(O)c(O)c1 [3,4-dihydroxyhydrocinnamic acid]
44%	O=C(O)/C=C/c1ccc(O)c(O)c1 [3,4-dihydroxycinnamic acid]

SMILES	Inhibition of HMG-CoA reductase activity
O=C(O)/C=C/c1ccc(O)cc1 [4-Hydroxycinnamic acid, 4-hydroxycinnamic acid]	31%

system: main artery; assay: Analysis for fatty streak in the main artery of rabbits; type: in vivo, rabbit (New Zealand White); details: FIGS. 1A-1E; control: a thick layer
Procedure: Cinnamic acid derivatives were purchased from Sigma Chemical Co. (St. Louis, Mo.). The rabbits were fed for 8 weeks while being allowed free access to the diets and water. The chest of each of the rabbits sacrificed in Step 2 was incised. […] The main artery was incised in the middle along the longitudinal axis and pinned to a dish. The moist artery was photographed and, then, the staining of fatty streaks was carried out in accordance with the method of […]., et al. (J. Lab. Clin. Med., 121, 103-110(1993)) as follows. A part of the incised main artery was washed three times with anhydrous propylene glycol for 2 min. and stained for 30 min. with a saturated solution of Oil Red O (ORO, Sigma Co.) dissolved in propylene glycol. Thereafter, the artery was washed twice with 85% propylene glycol for 3 min. to remove remaining staining solution and, then washed with physiological saline. The artery was photographed and the photograph was traced. The area of stained region (fatty streak region) was determined with an image analyzer (LEICA, Q-600, Germany) and its proportion (%) to the total arterial area was calculated.

SMILES	macrophage-lipid complex on the arterial endothelium
O=C(O)CCc1ccc(O)c(O)c1 [3,4-dihydroxyhydrocinnamic acid]	no or very thin layers of macrophage-lipid complex
O=C(O)/C=C/c1ccc(O)cc1 [4-Hydroxycinnamic acid, 4-hydroxycinnamic acid]	no or very thin layers of macrophage-lipid complex
O=C(O)/C=C/c1ccc(O)c(O)c1 [3,4-dihydroxycinnamic acid]	no or very thin layers of macrophage-lipid complex

same assay, conditions: proportion of total arterial area, Oil Red O, rabbits, 8 weeks; Control 80 ± 8

SMILES	Fatty streak
O=C(O)CCc1ccc(O)c(O)c1 [3,4-dihydroxyhydrocinnamic acid]	16 ± 1%
O=C(O)/C=C/c1ccc(O)cc1 [4-Hydroxycinnamic acid, 4-hydroxycinnamic acid]	24 ± 11%
O=C(O)/C=C/c1ccc(O)c(O)c1 [3,4-dihydroxycinnamic acid]	13 ± 5%
